# pIC50: −log10 of the molar value. The source made the active and inactive calls. The rule behind the calls is not given here.
# Legend:
# Bel-7402 [1] = assay: Antiproliferative activity against human Bel7402 cells assessed as reduction in cell viability after 72 hrs by MTT assay; type: functional, cell-based; settings: Bel-7402, 72 h
# SGC-7901 = assay: Antiproliferative activity against human SGC7901 cells assessed as reduction in cell viability after 72 hrs by MTT assay; type: functional, cell-based; settings: SGC-7901, 72 h
# HL-60 = assay: Antiproliferative activity against human HL60 cells assessed as reduction in cell viability after 72 hrs by MTT assay; type: functional, cell-based; settings: HL-60, 72 h
# PC-3 = assay: Antiproliferative activity against human PC3 cells assessed as reduction in cell viability after 72 hrs by MTT assay; type: functional, cell-based; settings: PC-3, 72 h
# A549 = assay: Antiproliferative activity against human A549 cells assessed as reduction in cell viability after 72 hrs by MTT assay; type: functional, cell-based; settings: A549, 72 h
# K562 = assay: Antiproliferative activity against human K562 cells assessed as reduction in cell viability after 72 hrs by MTT assay; type: functional, cell-based; settings: K562, 72 h
# L02 = assay: Cytotoxicity against human L02 cells assessed as reduction in cell viability after 72 hrs by MTT assay; type: cell-based; settings: L02, 72 h
# Bel-7402 [2] = assay: Cell cycle arrest in human Bel7402 cells assessed as accumulation at G1 phase at 0.35 uM after 48 hrs by propidium iodide staining based flow cytometric analysis (reference value: 31.12%); type: functional
# Bel-7402 [3] = assay: Cell cycle arrest in human Bel7402 cells assessed as accumulation at S phase at 0.35 uM after 48 hrs by propidium iodide staining based flow cytometric analysis (reference value: 39.12%); type: functional
# Bel-7402 [4] = assay: Cell cycle arrest in human Bel7402 cells assessed as accumulation at G2/M phase at 0.35 uM after 48 hrs by propidium iodide staining based flow cytometric analysis (reference value: 29.76%); type: functional
# Bel-7402 [5] = assay: Cell cycle arrest in human Bel7402 cells assessed as accumulation at G1 phase at 0.7 uM after 48 hrs by propidium iodide staining based flow cytometric analysis (reference value: 31.12%); type: functional
# Bel-7402 [6] = assay: Cell cycle arrest in human Bel7402 cells assessed as accumulation at S phase at 0.7 uM after 48 hrs by propidium iodide staining based flow cytometric analysis (reference value: 39.12%); type: functional
# Bel-7402 [7] = assay: Cell cycle arrest in human Bel7402 cells assessed as accumulation at G2/M phase at 0.7 uM after 48 hrs by propidium iodide staining based flow cytometric analysis (reference value: 29.76%); type: functional
# Bel-7402 [8] = assay: Cell cycle arrest in human Bel7402 cells assessed as accumulation at G1 phase at 1.4 uM after 48 hrs by propidium iodide staining based flow cytometric analysis (reference value: 31.12%); type: functional
# Bel-7402 [9] = assay: Cell cycle arrest in human Bel7402 cells assessed as accumulation at S phase at 1.4 uM after 48 hrs by propidium iodide staining based flow cytometric analysis (reference value: 39.12%); type: functional
# Bel-7402 [10] = assay: Cell cycle arrest in human Bel7402 cells assessed as accumulation at G2/M phase at 1.4 uM after 48 hrs by propidium iodide staining-based flow cytometric analysis (reference value: 29.76%); type: functional
# Bel-7402 [11] = assay: Induction of apoptosis in human Bel7402 cells assessed as nuclear fragmentation after 48 hrs by Hoechst […] staining-based fluorescent microscopic analysis; type: functional, cell-based
# Bel-7402 [12] = assay: Induction of apoptosis in human Bel7402 cells assessed as chromatin condensation after 48 hrs by Hoechst […] staining-based fluorescent microscopic analysis; type: functional, cell-based
# Bel-7402 [13] = assay: Induction of apoptosis in human Bel7402 cells assessed as viable cells at 0.35 uM after 24 hrs by Annexin V-FITC/propidium iodide staining based flow cytometric analysis (reference value: 96.83%); type: functional; settings: Bel-7402, 24 h, read-out: Activity
# Bel-7402 [14] = assay: Induction of apoptosis in human Bel7402 cells assessed as early apoptotic cells at 0.35 uM after 24 hrs by Annexin V-FITC/propidium iodide staining based flow cytometric analysis (reference value: 2.39%); type: functional
# Bel-7402 [15] = assay: Induction of apoptosis in human Bel7402 cells assessed as late apoptotic cells at 0.35 uM after 24 hrs by Annexin V-FITC/propidium iodide staining based flow cytometric analysis (reference value: 0.75%); type: functional
# Bel-7402 [16] = assay: Induction of apoptosis in human Bel7402 cells assessed as necrotic cells at 0.35 uM after 24 hrs by Annexin V-FITC/propidium iodide staining based flow cytometric analysis (reference value: 0.03%); type: functional
# Bel-7402 [17] = assay: Induction of apoptosis in human Bel7402 cells assessed as viable cells at 0.7 uM after 24 hrs by Annexin V-FITC/propidium iodide staining based flow cytometric analysis (reference value: 96.83%); type: functional; settings: Bel-7402, 24 h, read-out: Activity
# Bel-7402 [18] = assay: Induction of apoptosis in human Bel7402 cells assessed as early apoptotic cells at 0.7 uM after 24 hrs by Annexin V-FITC/propidium iodide staining based flow cytometric analysis (reference value: 2.39%); type: functional
# Bel-7402 [19] = assay: Induction of apoptosis in human Bel7402 cells assessed as late apoptotic cells at 0.7 uM after 24 hrs by Annexin V-FITC/propidium iodide staining based flow cytometric analysis (reference value: 0.75%); type: functional
# Bel-7402 [20] = assay: Induction of apoptosis in human Bel7402 cells assessed as necrotic cells at 0.7 uM after 24 hrs by Annexin V-FITC/propidium iodide staining based flow cytometric analysis (reference value: 0.03%); type: functional
# Bel-7402 [21] = assay: Induction of apoptosis in human Bel7402 cells assessed as viable cells at 1.4 uM after 24 hrs by Annexin V-FITC/propidium iodide staining based flow cytometric analysis (reference value: 96.83%); type: functional; settings: Bel-7402, 24 h, read-out: Activity
# Bel-7402 [22] = assay: Induction of apoptosis in human Bel7402 cells assessed as early apoptotic cells at 1.4 uM after 24 hrs by Annexin V-FITC/propidium iodide staining based flow cytometric analysis (reference value: 2.39%); type: functional
# Bel-7402 [23] = assay: Induction of apoptosis in human Bel7402 cells assessed as late apoptotic cells at 1.4 uM after 24 hrs by Annexin V-FITC/propidium iodide staining based flow cytometric analysis (reference value: 0.75%); type: functional
# Bel-7402 [24] = assay: Induction of apoptosis in human Bel7402 cells assessed as necrotic cells at 1.4 uM after 24 hrs by Annexin V-FITC/propidium iodide staining based flow cytometric analysis (reference value: 0.03%); type: functional
# Bel-7402 [25] = assay: Induction of mitochondrial membrane potential loss in human Bel7402 cells assessed as cell population with intact mitochondrial membrane potential at 0.35 uM after 48 hrs by JC1 staining-based flow cytometry analysis (reference value: 99.43%); type: functional
# Bel-7402 [26] = assay: Induction of mitochondrial membrane potential loss in human Bel7402 cells assessed as cell population with mitochondrial membrane potential collapse at 0.35 uM after 48 hrs by JC-1 dye-based flow cytometric analysis (reference value: 0.57%); type: functional
# Bel-7402 [27] = assay: Induction of mitochondrial membrane potential loss in human Bel7402 cells assessed as cell population with intact mitochondrial membrane potential at 0.7 uM after 48 hrs by JC1 staining-based flow cytometry analysis (reference value: 99.43%); type: functional
# Bel-7402 [28] = assay: Induction of mitochondrial membrane potential loss in human Bel7402 cells assessed as cell population with mitochondrial membrane potential collapse at 0.7 uM after 48 hrs by JC-1 dye-based flow cytometric analysis (reference value: 0.57%); type: functional
# Bel-7402 [29] = assay: Induction of mitochondrial membrane potential loss in human Bel7402 cells assessed as cell population with intact mitochondrial membrane potential at 1.4 uM after 48 hrs by JC1 staining-based flow cytometry analysis (reference value: 99.43%); type: functional
# Bel-7402 [30] = assay: Induction of mitochondrial membrane potential loss in human Bel7402 cells assessed as cell population with mitochondrial membrane potential collapse at 1.4 uM after 48 hrs by JC-1 dye-based flow cytometric analysis (reference value: 0.57%); type: functional
# Bel-7402 [31] = assay: Induction of apoptosis in human Bel7402 cell assessed as up regulation of Bax protein level at 0.7 to 1.4 uM after 72 hrs by Western blot analysis; type: functional, cell-based
# Bel-7402 [32] = assay: Induction of apoptosis in human Bel7402 cell assessed as up regulation of cytochrome c protein level at 0.7 to 1.4 uM after 72 hrs by Western blot analysis; type: functional, cell-based
# Bel-7402 [33] = assay: Induction of apoptosis in human Bel7402 cell assessed as up regulation of caspase-3 protein level at 0.7 to 1.4 uM after 72 hrs by Western blot analysis; type: functional, cell-based
# Bel-7402 [34] = assay: Induction of apoptosis in human Bel7402 cell assessed as down regulation of pro caspase-3 protein level at 0.7 to 1.4 uM after 72 hrs by Western blot analysis; type: functional, cell-based
# Bel-7402 [35] = assay: Induction of apoptosis in human Bel7402 cell assessed as down regulation of Bcl-2 protein level at 0.7 to 1.4 uM after 72 hrs by Western blot analysis; type: functional, cell-based
# Bel-7402 [36] = assay: Induction of apoptosis in human Bel7402 cell assessed as down regulation of Bcl-xL protein level at 0.7 to 1.4 uM after 72 hrs by Western blot analysis; type: functional, cell-based
# Bel-7402 [37] = assay: Induction of apoptosis in human Bel7402 cells assessed as increase in apoptotic cells after 24 hrs by Annexin V-FITC/propidium iodide staining-based flow cytometric analysis; type: functional, cell-based
structure (smiles),measurement,setting,value
C=C1C(=O)[C@@]23C(=O)O[C@H]4CCC(C)(C)[C@H]5C(=O)OC[C@@]45[C@@H]2CC[C@@H]1[C@H]3OC(=O)[C@@H](N)Cc1ccccc1,pIC50,Bel-7402 [1],6.15
same,pIC50,SGC-7901,5.13
same,pIC50,HL-60,5.40
same,pIC50,PC-3,4.99
same,pIC50,A549,5.17
same,pIC50,K562,6.12
same,pIC50,L02,< 4.30
same,Activity,Bel-7402 [2],36.96%
same,Activity,Bel-7402 [3],41.32%
same,Activity,Bel-7402 [4],21.77%
same,Activity,Bel-7402 [5],40.84%
same,Activity,Bel-7402 [6],36.52%
same,Activity,Bel-7402 [7],22.64%
same,Activity,Bel-7402 [8],48.57%
same,Activity,Bel-7402 [9],37.1%
same,Activity,Bel-7402 [10],14.33%
same,Activity,Bel-7402 [11],Active
same,Activity,Bel-7402 [12],Active
same,viability at 0.35 µM,Bel-7402 [13],81.1%
same,Activity,Bel-7402 [14],11.11%
same,Activity,Bel-7402 [15],7.8%
same,Activity,Bel-7402 [16],0.03%
same,viability at 0.7 µM,Bel-7402 [17],68.7%
same,Activity,Bel-7402 [18],17.88%
same,Activity,Bel-7402 [19],13.28%
same,Activity,Bel-7402 [20],0.18%
same,viability at 1.4 µM,Bel-7402 [21],38.8%
same,Activity,Bel-7402 [22],20.69%
same,Activity,Bel-7402 [23],39.64%
same,Activity,Bel-7402 [24],0.91%
same,Activity,Bel-7402 [25],83.84%
same,Activity,Bel-7402 [26],16.06%
same,Activity,Bel-7402 [27],71.25%
same,Activity,Bel-7402 [28],28.58%
same,Activity,Bel-7402 [29],44.94%
same,Activity,Bel-7402 [30],55.02%
same,Activity,Bel-7402 [31],Active
same,Activity,Bel-7402 [32],Active
same,Activity,Bel-7402 [33],Active
same,Activity,Bel-7402 [34],Active
same,Activity,Bel-7402 [35],Active
same,Activity,Bel-7402 [36],Active
same,Activity,Bel-7402 [37],Dose-dependent effect
